Laboratory results from patent US11040954B1, “CXCR3 receptor agonists” (RECEPTOS LLC, priority 2016, dated 2021).
Read-outs that look alike come from different tables or passages of the source.

Target: T1, CXCR3 (Homo sapiens, UniProt P49682)
T1 construct: host or cells: CHO-K1 (cAMP Hunter CHOK1 CXCR3 Gi cell line)
T1 sequence (P49682 1-368): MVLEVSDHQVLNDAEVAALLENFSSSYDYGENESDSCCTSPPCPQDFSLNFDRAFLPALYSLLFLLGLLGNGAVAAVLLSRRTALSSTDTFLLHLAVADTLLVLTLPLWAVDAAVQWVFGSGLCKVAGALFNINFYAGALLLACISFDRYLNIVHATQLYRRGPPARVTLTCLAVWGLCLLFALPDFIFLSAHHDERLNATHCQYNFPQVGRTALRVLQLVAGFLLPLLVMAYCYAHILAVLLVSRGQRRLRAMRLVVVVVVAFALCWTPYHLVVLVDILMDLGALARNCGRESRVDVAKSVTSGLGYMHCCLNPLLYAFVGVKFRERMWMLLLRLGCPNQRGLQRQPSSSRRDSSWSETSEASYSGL
Assay: CXCR3 cAMP agonist assay (cAMP Hunter CHOK1 CXCR3 Gi cell line, forskolin-stimulated, HitHunter cAMP detection)
Format: cell-based
Method in brief: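 Agonist activity was measured as suppression of forskolin (20 μM)-induced cAMP, read by luminescent enzyme-fragment complementation with a cAMP standard curve and CXCL11 defining full efficacy. Assay used 50,000 CXCR3 Gi CHOK1 cells/well in pH 7.4 HEPES-buffered HBSS with 0.1% BSA, compound 0-10 μM over 12 points, 30 min incubation.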

[1] = cAMP Hunter CHOK1 CXCR3 Gi cells, 20 μM forskolin, 30 minutes, read-out: Activity (CXCR3 cAMP agonist assay compound EC50)

Work on `Cc1cc(NC(=O)[C@H](CCN)NC(=O)[C@@H]2Cc3ccccc3CN2C(=O)CCC(=O)N2CCCC(F)(F)C2)ccc1Cl` [Compound 12-79] yielded an EC50 [1] of less than 50 nM.

`Cc1cc(NC(=O)[C@H](CCN)NC(=O)[C@@H]2Cc3ccccc3CN2C(=O)CCC(=O)NCCC(C)C)ccc1Cl` [Compound 12-80] was tested, and the EC50 [1] was less than 50 nM.

With `Cc1cc(NC(=O)[C@H](CCN)NC(=O)[C@@H]2Cc3ccccc3CN2C(=O)CCC(=O)Nc2ccccc2)ccc1Cl` [Compound 12-81] the EC50 [1] was less than 50 nM.

With `Cc1cc(NC(=O)[C@H](CCN)NC(=O)[C@@H]2Cc3ccccc3CN2C(=O)CCC(=O)NC2CC2(F)F)ccc1Cl` (stereo partly drawn) [Compound 12-82] the EC50 [1] was 250 to 500 nM.

With `Cc1cc(NC(=O)[C@H](CCN)NC(=O)[C@@H]2Cc3ccccc3CN2C(=O)CCC(=O)NC(C)(C)C)ccc1Cl` [Compound 12-83] the EC50 [1] was 50 to 250 nM.

Compound `Cc1cc(NC(=O)[C@H](CCN)NC(=O)[C@@H]2Cc3ccccc3CN2C(=O)CCC(=O)N2CCCCC2C#N)ccc1Cl` (stereo partly drawn) [Compound 12-84] has an EC50 [1] of less than 50 nM.

`Cc1cc(NC(=O)[C@H](CCN)NC(=O)[C@@H]2Cc3ccccc3CN2C(=O)CCC(=O)NC2(C(F)(F)F)CC2)ccc1Cl` [Compound 12-85] was tested, and the EC50 [1] was greater than 500 nM.

`Cc1cc(NC(=O)[C@H](CCN)NC(=O)[C@@H]2Cc3ccccc3CN2C(=O)CCC(=O)N2CCC(=O)CC2)ccc1Cl` [Compound 12-86] was tested, and the EC50 was 250 to 500 nM.

`Cc1cc(NC(=O)[C@H](CCN)NC(=O)[C@@H]2Cc3ccccc3CN2C(=O)CCC(=O)N2CCC(C(C)(C)C)CC2)ccc1Cl` [Compound 12-87] gave an EC50 [1] of less than 50 nM.

`Cc1cc(NC(=O)[C@H](CCN)NC(=O)[C@@H]2Cc3ccccc3CN2C(=O)CCC(=O)NCCOC(C)C)ccc1Cl` [Compound 12-89] was tested, and the EC50 [1] was greater than 500 nM.

For `Cc1cc(NC(=O)[C@H](CCN)NC(=O)[C@@H]2Cc3ccccc3CN2C(=O)CCC(=O)NCCC(F)(F)F)ccc1Cl` [Compound 12-90], the EC50 [1] was 50 to 250 nM.

`Cc1cc(NC(=O)[C@H](CCN)NC(=O)[C@@H]2Cc3ccccc3CN2C(=O)CCC(=O)NCC(C)(C)C)ccc1Cl` [Compound 12-91] was tested, and the EC50 [1] was less than 50 nM.

`CCC(C)(C)NC(=O)CCC(=O)N1Cc2ccccc2C[C@H]1C(=O)N[C@@H](CCN)C(=O)Nc1ccc(Cl)c(C)c1` [Compound 12-92] gave an EC50 [1] of 50 to 250 nM.

In the case of `Cc1cc(NC(=O)[C@H](CCN)NC(=O)[C@@H]2Cc3ccccc3CN2C(=O)CCC(=O)N(C)C(C)(C)C)ccc1Cl` [Compound 12-93], the EC50 [1] is reported as less than 50 nM.

Compound `Cc1cc(NC(=O)[C@H](CCN)NC(=O)[C@@H]2Cc3ccccc3CN2C(=O)CCC(=O)N2CCC3(CCC3)C2)ccc1Cl` [Compound 12-94] has an EC50 [1] of less than 50 nM.

Compound `Cc1cc(NC(=O)[C@H](CCN)NC(=O)[C@@H]2Cc3ccccc3CN2C(=O)CCC(=O)N2CCC3CCCCC32)ccc1Cl` (stereo partly drawn) [Compound 12-95] has an EC50 [1] of less than 50 nM.

`Cc1cc(NC(=O)[C@H](CCN)NC(=O)[C@@H]2Cc3ccccc3CN2C(=O)CCC(=O)N2CCCC(C(C)C)C2)ccc1Cl` (stereo partly drawn) [Compound 12-96] gave an EC50 [1] of less than 50 nM.

`CC[C@H]1CCCCN1C(=O)CCC(=O)N1Cc2ccccc2C[C@H]1C(=O)N[C@@H](CCN)C(=O)Nc1ccc(Cl)c(C)c1` [Compound 12-97] gave an EC50 [1] of less than 50 nM.

For `Cc1cc(NC(=O)[C@H](CCN)NC(=O)[C@@H]2Cc3ccccc3CN2C(=O)CCC(=O)N(C)CCC(C)(C)C)ccc1Cl` [Compound 12-98], the EC50 [1] was less than 50 nM.

`CCN1CCN(C(=O)CCC(=O)N2Cc3ccccc3C[C@H]2C(=O)N[C@@H](CCN)C(=O)Nc2ccc(Cl)c(C)c2)CC1` [Compound 12-99] gave an EC50 [1] of 50 to 250 nM.

`Cc1cc(NC(=O)[C@H](CCN)NC(=O)[C@@H]2Cc3ccccc3CN2C(=O)CCC(=O)N2CCN(c3ccccc3)CC2)ccc1Cl` [Compound 12-101] gave an EC50 [1] greater than 500 nM.

`Cc1cc(NC(=O)[C@H](CCN)NC(=O)[C@@H]2Cc3ccccc3CN2C(=O)CCC(=O)N2CCN(C(C)(C)C)CC2)ccc1Cl` [Compound 12-102] was tested, and the EC50 [1] was 50 to 250 nM.

`Cc1cc(NC(=O)[C@H](CCN)NC(=O)[C@@H]2Cc3ccccc3CN2C(=O)CCC(=O)N2CCN(C)CC2(C)C)ccc1Cl` [Compound 12-103] showed an EC50 [1] of less than 50 nM.

With `CCC1CN(C(=O)CCC(=O)N2Cc3ccccc3C[C@H]2C(=O)N[C@@H](CCN)C(=O)Nc2ccc(Cl)c(C)c2)CCN1C` (stereo partly drawn) [Compound 12-104] the EC50 [1] was less than 50 nM.

Compound `Cc1cc(NC(=O)[C@H](CCN)NC(=O)[C@@H]2Cc3ccccc3CN2C(=O)CCC(=O)N2C3CCC2CN(C)C3)ccc1Cl` [Compound 12-105] has an EC50 [1] greater than 500 nM.

`CC(=O)N1CCN(C(=O)CCC(=O)N2Cc3ccccc3C[C@H]2C(=O)N[C@@H](CCN)C(=O)Nc2ccc(Cl)c(C)c2)CC1` [Compound 12-106] showed an EC50 [1] of 250 to 500 nM.

With `Cc1cc(NC(=O)[C@H](CCN)NC(=O)[C@@H]2Cc3ccccc3CN2C(=O)CCC(=O)N2CCN(c3ncccn3)CC2)ccc1Cl` [Compound 12-107] the EC50 [1] was 50 to 250 nM.

With `Cc1cc(NC(=O)[C@H](CCN)NC(=O)[C@@H]2Cc3ccccc3CN2C(=O)CCC(=O)N2CCN(c3nccs3)CC2)ccc1Cl` [Compound 12-108] the EC50 [1] was 50 to 250 nM.

`Cc1cc(NC(=O)[C@H](CCN)NC(=O)[C@@H]2Cc3ccccc3CN2C(=O)CCC(=O)N2CCN(C(=O)N(C)C)CC2)ccc1Cl` [Compound 12-109] was tested, and the EC50 [1] was 250 to 500 nM.

`Cc1cc(NC(=O)[C@H](CCN)NC(=O)[C@@H]2Cc3ccccc3CN2C(=O)CCC(=O)N2CCN3CCC[C@@H]3C2)ccc1Cl` [Compound 12-110] gave an EC50 [1] of less than 50 nM.

`CC[C@H]1CCCN1C(=O)CCC(=O)N1Cc2ccccc2C[C@H]1C(=O)N[C@@H](CCN)C(=O)Nc1ccc(Cl)c(C)c1` [Compound 12-111] showed an EC50 [1] of less than 50 nM.

`CC[C@@H]1CCCCN1C(=O)CCC(=O)N1Cc2ccccc2C[C@H]1C(=O)N[C@@H](CCN)C(=O)Nc1ccc(Cl)c(C)c1` [Compound 12-112] showed an EC50 [1] of less than 50 nM.

`COCCN(C)C(=O)CCC(=O)N1Cc2ccccc2C[C@H]1C(=O)N[C@@H](CCN)C(=O)Nc1ccc(Cl)c(C)c1` [Compound 12-113] was tested, and the EC50 [1] was 250 to 500 nM.

`Cc1cc(NC(=O)[C@H](CCN)NC(=O)[C@@H]2Cc3ccccc3CN2C(=O)CCC(=O)N2CCNCC2)ccc1Cl` [Compound 12-115] was tested, and the EC50 [1] was greater than 500 nM.

Work on `Cc1cc(NC(=O)[C@H](CCN)NC(=O)[C@@H]2Cc3ccccc3CN2C(=O)CCC(=O)N2CCN(C)C[C@@H]2C)ccc1Cl` [Compound 12-116] yielded an EC50 [1] of 50 to 250 nM.

For `Cc1cc(NC(=O)[C@H](CCN)NC(=O)[C@@H]2Cc3ccccc3CN2C(=O)CCC(=O)N2CCN(CC#N)CC2)ccc1Cl` [Compound 12-117], the EC50 [1] was 50 to 250 nM.

`[2H]C([2H])([2H])N1CCN(C(=O)CCC(=O)N2Cc3ccccc3C[C@H]2C(=O)N[C@@H](CCN)C(=O)Nc2ccc(Cl)c(C)c2)CC1` [Compound 12-118] was tested, and the EC50 [1] was less than 50 nM.

`Cc1cc(NC(=O)[C@H](CCN)NC(=O)[C@@H]2Cc3ccccc3CN2C(=O)CCC(=O)N(C)CC(F)(F)F)ccc1Cl` [Compound 12-119] gave an EC50 [1] of 250 to 500 nM.

Work on `CCC1CCCN(C(=O)CCC(=O)N2Cc3ccccc3C[C@H]2C(=O)N[C@@H](CCN)C(=O)Nc2ccc(Cl)c(C)c2)C1` (stereo partly drawn) [Compound 12-120] yielded an EC50 [1] of less than 50 nM.

`Cc1cc(NC(=O)[C@H](CCN)NC(=O)[C@@H]2Cc3ccccc3CN2C(=O)CCC(=O)N2CCCCC2C(C)C)ccc1Cl` (stereo partly drawn) [Compound 12-121] showed an EC50 [1] of less than 50 nM.

For `Cc1cc(NC(=O)[C@H](CCN)NC(=O)[C@@H]2Cc3ccccc3CN2C(=O)CCC(=O)N2CC[C@@H](C)C2)ccc1Cl` [Compound 12-122], the EC50 [1] was less than 50 nM.

`Cc1cc(NC(=O)[C@H](CCN)NC(=O)[C@@H]2Cc3ccccc3CN2C(=O)CCC(=O)N2CC[C@H](C)C2)ccc1Cl` [Compound 12-123] gave an EC50 [1] of less than 50 nM.

In the case of `Cc1cc(NC(=O)[C@H](CCN)NC(=O)[C@@H]2Cc3ccccc3CN2C(=O)CCC(=O)N(C)c2ccccc2)ccc1Cl` [Compound 12-124], the EC50 [1] is reported as 250 to 500 nM.

With `CN(C(=O)CCC(=O)N1Cc2ccccc2C[C@H]1C(=O)NC1(C(=O)Nc2ccc(Cl)c(Cl)c2F)CCNCC1)C(C)(C)C` [Compound 12-125] the EC50 [1] was 50 to 250 nM.

`CCN1CCN(C(=O)CCC(=O)N2Cc3ccccc3C[C@H]2C(=O)N[C@@H](CCN)C(=O)Nc2ccc(Cl)c(C)c2)C(C)(C)C1` [Compound 12-126] was tested, and the EC50 [1] was 50 to 250 nM.

`CC1(C)COCCN1C(=O)CCC(=O)N1Cc2ccccc2C[C@H]1C(=O)NC1(C(=O)Nc2ccc(Cl)c(Cl)c2F)CCNCC1` [Compound 12-127] was tested, and the EC50 [1] was 50 to 250 nM.

With `O=C(NC1(C(=O)Nc2ccc(Cl)c(Cl)c2F)CCNCC1)[C@@H]1Cc2ccccc2CN1C(=O)CCC(=O)N1CCCC2(CCC2)C1` [Compound 12-128] the EC50 [1] was less than 50 nM.

For `CC(C)(C)CNC(=O)CCC(=O)N1Cc2ccccc2C[C@H]1C(=O)NC1(C(=O)Nc2ccc(Cl)c(Cl)c2F)CCNCC1` [Compound 12-129], the EC50 [1] was 250 to 500 nM.

For `CC1(C)CCCN(C(=O)CCC(=O)N2Cc3ccccc3C[C@H]2C(=O)NC2(C(=O)Nc3ccc(Cl)c(Cl)c3F)CCNCC2)C1` [Compound 12-130], the EC50 [1] was less than 50 nM.

Work on `Cc1cc(NC(=O)[C@H](CCN)NC(=O)[C@@H]2Cc3ccccc3CN2C(=O)CCC(=O)N2CCN(C)C(C)(C)C2)ccc1Cl` [Compound 12-131] yielded an EC50 [1] of less than 50 nM.

Compound `Cc1cc(NC(=O)[C@H](CCN)NC(=O)[C@@H]2Cc3ccccc3CN2C(=O)CCC(=O)N2CCC[C@@H]2c2ccccc2)ccc1Cl` [Compound 12-132] has an EC50 [1] of 50 to 250 nM.

For `Cc1cc(NC(=O)[C@H](CCN)NC(=O)[C@@H]2Cc3ccccc3CN2C(=O)CCC(=O)N2CC(N(C)C)C2)ccc1Cl` [Compound 12-133], the EC50 [1] was 50 to 250 nM.

Compound `COC[C@@H]1CCCN1C(=O)CCC(=O)N1Cc2ccccc2C[C@H]1C(=O)N[C@@H](CCN)C(=O)Nc1ccc(Cl)c(C)c1` [Compound 12-134] has an EC50 [1] of 50 to 250 nM.

In the case of `CC1(C)CCCCN1C(=O)CCC(=O)N1Cc2ccccc2C[C@H]1C(=O)NC1(C(=O)Nc2ccc(Cl)c(Cl)c2F)CCNCC1` [Compound 12-135], the EC50 [1] is reported as less than 50 nM.
